We go through 1 compound from patent US20140249135A1, “PIM KINASE INHIBITORS AND METHODS OF THEIR USE” (NOVARTIS AG, priority 2007, published 2014).

One experiment has as its target Pim1 kinase (Homo sapiens, UniProt P11309). Put plainly: Pim1 ATP depletion assay.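 Note: Luciferase-luciferin luminescence readout of residual ATP after PIM1 transfers phosphate to a peptide substrate, 40 µM ATP added, reaction run to roughly half ATP consumption.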 The experiment is classed as biochemical. Particulars: Pim1 ATP depletion assay; read-out: IC50 (μM) PIM1.
The next experiment addresses T1, Flt3 kinase (Homo sapiens, UniProt P36888).
T1 sequence (P36888 27-993): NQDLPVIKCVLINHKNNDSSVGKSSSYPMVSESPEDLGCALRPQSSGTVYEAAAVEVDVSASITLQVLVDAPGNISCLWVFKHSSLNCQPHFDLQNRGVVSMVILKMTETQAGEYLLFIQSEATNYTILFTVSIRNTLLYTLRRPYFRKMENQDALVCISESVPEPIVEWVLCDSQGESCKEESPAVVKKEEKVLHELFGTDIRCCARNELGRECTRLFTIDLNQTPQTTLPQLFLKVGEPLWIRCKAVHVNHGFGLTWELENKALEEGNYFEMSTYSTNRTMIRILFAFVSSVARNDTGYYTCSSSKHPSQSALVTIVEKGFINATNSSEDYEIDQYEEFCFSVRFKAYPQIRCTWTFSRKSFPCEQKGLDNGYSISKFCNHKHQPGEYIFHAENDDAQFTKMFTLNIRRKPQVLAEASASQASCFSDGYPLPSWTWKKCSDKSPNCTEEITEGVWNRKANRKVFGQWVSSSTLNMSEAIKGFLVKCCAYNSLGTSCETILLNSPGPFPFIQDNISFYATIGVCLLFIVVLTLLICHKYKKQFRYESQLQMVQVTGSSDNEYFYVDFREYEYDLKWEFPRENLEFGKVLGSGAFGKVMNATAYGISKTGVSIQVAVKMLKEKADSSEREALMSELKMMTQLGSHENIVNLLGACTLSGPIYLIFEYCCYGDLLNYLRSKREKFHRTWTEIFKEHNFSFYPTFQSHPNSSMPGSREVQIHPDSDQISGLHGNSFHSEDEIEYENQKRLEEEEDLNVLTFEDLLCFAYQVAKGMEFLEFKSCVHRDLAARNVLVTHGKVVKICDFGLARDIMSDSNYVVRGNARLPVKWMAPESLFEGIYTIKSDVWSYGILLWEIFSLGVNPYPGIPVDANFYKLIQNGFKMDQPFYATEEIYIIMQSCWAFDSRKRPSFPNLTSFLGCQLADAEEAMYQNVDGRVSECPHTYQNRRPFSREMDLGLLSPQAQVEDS
The experiment is described as follows: Flt3 AlphaScreen assay. Background: In Alpha technology, singlet oxygen from a donor bead excites a nearby acceptor bead.

Another experiment has as its target Pim2 kinase (Homo sapiens, UniProt Q9P1W9). Put plainly: Pim2 ATP depletion assay.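 Note: Luciferase-based luminescent readout of ATP remaining after PIM2 phosphorylates a BAD peptide, final 5 nM enzyme, 4 µM ATP, 10 µM peptide, 2.5% DMSO, run to roughly half ATP consumption.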 It is filed as biochemical. Particulars: read-out: IC50 (μM) PIM2.
The target of experiment [1] is T2, human full length PKCE enzyme (Homo sapiens, UniProt Q02156).
T2 construct: human full length PKCE enzyme purchased from InVitrogen; purchased InVitrogen
T2 sequence (Q02156 1-737): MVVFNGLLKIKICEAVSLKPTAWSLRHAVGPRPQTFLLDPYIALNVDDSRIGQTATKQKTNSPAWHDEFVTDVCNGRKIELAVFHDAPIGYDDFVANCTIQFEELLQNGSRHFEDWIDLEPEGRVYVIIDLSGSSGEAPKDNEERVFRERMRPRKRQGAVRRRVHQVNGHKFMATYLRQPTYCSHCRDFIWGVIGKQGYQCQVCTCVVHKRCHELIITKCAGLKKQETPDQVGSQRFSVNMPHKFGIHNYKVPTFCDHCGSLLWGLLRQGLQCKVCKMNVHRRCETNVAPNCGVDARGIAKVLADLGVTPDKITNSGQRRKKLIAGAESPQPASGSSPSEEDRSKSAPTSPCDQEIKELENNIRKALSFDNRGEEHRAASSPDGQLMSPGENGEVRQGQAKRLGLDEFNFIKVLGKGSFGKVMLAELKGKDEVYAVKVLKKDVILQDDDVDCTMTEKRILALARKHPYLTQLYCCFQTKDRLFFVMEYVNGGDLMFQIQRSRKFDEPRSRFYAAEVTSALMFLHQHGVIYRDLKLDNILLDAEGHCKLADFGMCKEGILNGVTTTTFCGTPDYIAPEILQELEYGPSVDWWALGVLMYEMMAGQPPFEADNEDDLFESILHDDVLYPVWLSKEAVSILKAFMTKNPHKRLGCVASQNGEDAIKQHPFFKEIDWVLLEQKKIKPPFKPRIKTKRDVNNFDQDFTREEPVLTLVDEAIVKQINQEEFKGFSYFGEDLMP
The experiment is described as follows: In vitro PKCE assay. Particulars: 10 nM enzyme, 40 uM peptide substrate, 20 uM ATP, KinaseGlo Plus readout; read-out: PKCε IC50. It is filed as biochemical. A general note: Kinase-Glo measures the ATP left after a reaction by luminescence.

For the next experiment, the target named is Pim3 kinase (Homo sapiens, UniProt Q86V86). The experiment is described as follows: Pim3 ATP depletion assay. The experiment is classed as biochemical. Particulars: read-out: IC50 (μM) PIM3.

Chain of Pim2 kinase (Q9P1W9 whole entry): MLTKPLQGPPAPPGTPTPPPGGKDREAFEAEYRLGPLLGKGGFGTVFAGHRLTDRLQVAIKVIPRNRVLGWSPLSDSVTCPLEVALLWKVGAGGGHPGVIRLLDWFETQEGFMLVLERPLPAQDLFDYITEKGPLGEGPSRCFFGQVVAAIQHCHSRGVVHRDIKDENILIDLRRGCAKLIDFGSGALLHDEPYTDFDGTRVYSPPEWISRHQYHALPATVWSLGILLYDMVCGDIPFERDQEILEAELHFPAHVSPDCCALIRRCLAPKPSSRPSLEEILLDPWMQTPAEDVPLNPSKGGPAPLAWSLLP
Chain of Pim1 kinase (P11309 whole entry): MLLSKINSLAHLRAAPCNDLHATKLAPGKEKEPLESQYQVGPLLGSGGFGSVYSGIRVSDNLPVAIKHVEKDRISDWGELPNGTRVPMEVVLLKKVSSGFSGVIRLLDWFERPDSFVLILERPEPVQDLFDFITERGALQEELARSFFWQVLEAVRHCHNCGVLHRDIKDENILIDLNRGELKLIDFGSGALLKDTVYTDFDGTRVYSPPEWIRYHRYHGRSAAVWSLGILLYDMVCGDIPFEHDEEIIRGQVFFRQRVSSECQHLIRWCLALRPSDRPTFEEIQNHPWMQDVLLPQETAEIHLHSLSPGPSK

For the compound `CN(C)CCN(C)c1ccncc1NC(=O)c1nc(Br)cnc1N` [Example 124, 3-amino-6-bromo-N-(4-{[2-(dimethylamino)ethyl]-(methyl)amino}pyridin-3-yl)pyrazine-2-carboxamide], the IC50 (as a rule, the midpoint of a concentration-inhibition curve) was 1 to 10 µM at Pim1 kinase; 10 to 25 µM against Flt3 kinase; greater than 25 µM at Pim2 kinase; 10 to 25 µM in experiment [1]; 1 to 10 µM at Pim3 kinase.
